The target in one experiment is α1-adrenergic receptor. Nature of the experiment: α1-Adrenergic receptor binding test ([³H] prazosin displacement, rat brain membrane preparation). Particulars: 0.6 nM [³H] prazosin, 25 °C for 30 minutes, read-out: IC₅₀. As for the experimental part:
The α1-adrenergic receptor binding reaction was performed in accordance with the method of Greengrass and Bremner [Eur. J. Pharmacol., 55, 323 (1979)].
A rat was decapitated, and the brain was taken out and homogenized with 30 volumes of 50 Mm Tris hydrochloride (Ph 7.4). The homogenate was centrifuged at 1,000 x g for 5 minutes and the supernatant was further centrifuged at 48,000 x g for 20 minutes. The precipitate thus obtained was suspended in 50 mM Tris hydrochloride (pH 7.4) and recentrifuged at 48,000 x g for 20 minutes. The obtained precipitate was suspended in 50 mM Tris hydrochloride (pH 7.4) in such a manner as to give a concentration of 1.0 mg/ml protein. Thus an α1-adrenergic receptor preparation was obtained.
To 1.0 ml portions of this receptor preparation were added 0.6 nM [³H] prazosin and specimens at various concentrations, and the mixture was allowed to react at 25 °C for 30 minutes.
After the completion of the reaction, each reaction mixture was subjected to a rapid filtration through a glass filter (Whatman GF/B) and the filter was washed with 3 ml portions of 50 mM tris hydrochloride (pH 7.4) thrice. The radioactivity on the filter was measured with a liquid scintillation counter.
The difference between the radioactivity in the absence of any specimen and the radioactivity obtained in the presence of 10 µM of prazosin was referred to as the specific binding of the control. The ratio of the radioactivity obtained at the time of adding each specimen to the control radioactivity was determined and plotted against the specimen concentration. Then the fifty percent inhibitory concentration (IC₅₀) of each specimen was calculated by the curve fitting method with the use of a computer.

Experiment [1] deals with smooth muscle of the beagle prostate gland. Nature of the experiment: Urination disorder-relieving activity test (phenylephrine-induced contraction of isolated prostate smooth muscle, Magnus' method). Type of experiment: cell-based, dog. The note with it: specimen 10⁻⁸ to 10⁻⁶ M for 15 minutes, against cumulative phenylephrine, calculated from two dose/reaction curves, read-out: IC₅₀. On the procedure:
The urination disorder-relieving activity test was performed in accordance with the method described in FEDERATION PROCEEDINGS, 45 (11), (1986). Under pentobarbital anesthesia, the prostate gland of a male dog (weighing 7 to 10 kg, beagle, each group having 3 animals) was taken out. Then a preparation of the smooth muscle of the beagle prostate gland thus taken out was prepared in a conventional manner and the isometric tensile strength was measured by Magnus' method. After incubating for 60 to 90 minutes, phenylephrine (10⁻⁷ to 10⁻⁴ M) was accumulatively administered to give a control dose/reaction curve. After washing away the phenylephrine, the preparation was treated with a specimen (10⁻⁸ to 10⁻⁶ M) for 15 minutes. In the presence of the specimen, phenylephrine (10⁻⁷ to 10⁻³ M) was accumulatively administered again and a dose/reaction curve was obtained in the same manner. Based on these two dose/reaction curves, the IC₅₀ of each specimen was calculated.

A further experiment concerns dog (beagle). The experiment can be described thus: Depressor activity test (telemetry of blood pressure and cardiac rate in conscious dogs after oral administration). Type of experiment: in vivo. On the procedure:
The depressor activity test was performed in accordance with the method described in Journal of Physiology, 448, 307 - 320 (1992).
Under pentobarbital anesthesia, a catheter for detecting and transmitting the blood pressure was embedded in a branch of the femoral artery of a dog (weighing 10 kg, beagle, each group having 4 animals). When the animal restored from the postoperative aggression, a powder of the compound 1 encapsulated in a cellulose capsule (3 mg/kg) was orally administered to the animal, which had been fasted, without anesthesia or restriction.
Via the catheter embedded in the body of the beagle, the cardiac rate was measured from the blood pressure and the blood pressure pulse wave in accordance with the telemetry method. The blood pressure lowering effect attained the maximum level 30 minutes after the administration and the blood pressure was lowered by about 12 mmHg. This depressor activity persisted even 24 hours after the administration.

The mark [2] stands for this setting: 3 mg/kg orally, time after the administration.

Each structure is given as a SMILES string.

With `COc1ccccc1N1CCN(CCc2cn(CC(=O)C(C)C)c3ccccc23)CC1` [compound 15], the IC50 on α1-adrenergic receptor came out at 0.679 nM.
Take `COc1ccccc1N1CCN(CCCNc2cc(=O)n(C)c(=O)n2C)CC1` [urapidil, reference compound]: the IC50 at α1-adrenergic receptor turned out to be 741 nM. The potency estimated from few doses in experiment [1] was 53.7 nM.
For the compound `CCC(=O)Cn1cc(CCN2CCN(c3cccc(C)c3C)CC2)c2ccccc21` [compound 4], on α1-adrenergic receptor, the IC50 is 3.93 nM.
`CCC(=O)Cn1cc(CCN2CCN(c3ccccc3OC)CC2)c2ccccc21` [compound 1, 3-[2-(4-(2-methoxyphenyl)piperadinyl)ethyl]-1-(2-oxobutyl)indole]: on α1-adrenergic receptor, the IC50 turned out to be 7.75 nM. The cardiac rate result with dog (beagle) (3 mg/kg orally) was “somewhat lowered”. In addition, in the experiment with dog (beagle) (3 mg/kg orally (powder in cellulose capsule), fasted, without anesthesia, 30 minutes after the administration), the “blood pressure was lowered (maximum level)” value was “about 12 mmHg”. In the experiment on dog (beagle) (setting [2]), the “persistence of depressor activity” value is at least 24 h and the “time at which the blood pressure lowering effect attained the maximum level” value amounted to 30 min. The potency estimated from few doses in experiment [1] is 1.4 nM.
As for `CCC(=O)Cn1cc(CCN2CCN(c3ccc(F)cc3)CC2)c2ccccc21` [compound 8], on α1-adrenergic receptor, the IC50 amounted to 5.13 nM.
On to `CCCC(=O)Cn1cc(CCN2CCN(c3ccccc3OC)CC2)c2ccccc21` [compound 14], for which, at α1-adrenergic receptor, the IC50 was 0.801 nM.
